Assay results as given in US20060069132A1, “Azolecarboxamide herbicides” (priority 2004, published 2006).

Legend:
wheat = assay: Test C postemergence herbicide test; type: in vivo, Triticum aestivum
Method in brief: (§1)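 Plants were grown to the 1- to 4-leaf stage (2–18 cm) and then treated postemergence, or grown to the 2-leaf stage for the flooded paddy test. They were held in a greenhouse for 12 to 14 days and then scored by eye against controls, where 0 is no effect and 100 is complete control.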

winter barley = assay: Test C postemergence herbicide test; type: in vivo, Hordeum vulgare; details: for Barley, Winter plant response rating: 500 g ai/ha, scale 0 to 100
Method in brief: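 Injury scored visually against controls on a 0 (no effect) to 100 (complete control) scale, 12 to 14 days after treatment in greenhouse. Flooded paddy plants treated at 2-leaf stage; postemergence plants at 1- to 4-leaf stage, 2 to 18 cm tall.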

wild oat = assay: Test C postemergence herbicide test; type: in vivo, Avenafatua
Method in brief: as §1

Italian ryegrass = assay: Test C postemergence herbicide test; type: in vivo, Lolium multiflorum
Method in brief: as §1

windgrass = assay: Test C postemergence herbicide test; type: in vivo, Apera spica-venti
Method in brief: as §1

canarygrass = assay: Test C postemergence herbicide test; type: in vivo, Phalaris minor
Method in brief: as §1

downy bromegrass = assay: Test C postemergence herbicide test; type: in vivo, Bromus tectorum
Method in brief: as §1

green foxtail = assay: Test C postemergence herbicide test; type: in vivo, Setaria viridis
Method in brief: as §1

pigweed = assay: Test C pre-/postemergence herbicide test; type: in vivo, Amaranthus retroflexus; details: preemergence
Method in brief: (§2)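 Pre/post spray; non-phytotoxic solvent + surfactant. Post-timing 1–4 leaves, 2–18 cm. Read-out: visual % control vs untreated, day 12–14, greenhouse.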

eastern black nightshade = assay: Test C pre-/postemergence herbicide test; type: in vivo, Solanum ptycanthum; details: preemergence
Method in brief: as §2

blackgrass = assay: Test C postemergence herbicide test; type: in vivo, Alopecurus myosuroides; details: for Blackgrass plant response rating: 500 g ai/ha
Method in brief: as §1

yellow nutsedge = assay: Test C pre-/postemergence herbicide test; type: in vivo, Cyperus esculentus; details: preemergence
Method in brief: as §2

[1] = Postemergence, 500 g ai/ha, scale 0 to 100, 0 no effect, 100 complete control
[2] = postemergence, 125 g ai/ha, scale 0 to 100
[3] = postemergence, 62 g ai/ha, scale 0 to 100
[4] = Postemergence, 250 g ai/ha, scale 0 to 100, 0 no effect, 100 complete control
[5] = postemergence, 125 g ai/ha, scale 0 to 100 (0 no effect, 100 complete control)
[6] = postemergence, 62 g ai/ha, scale 0 to 100 (0 no effect, 100 complete control)
[7] = 500 g ai/ha, scale 0 to 100 (0 no effect, 100 complete control), visual, 12 to 14 days
[8] = Postemergence, 500 g ai/ha, scale 0 to 100
[9] = 125 g ai/ha, scale 0 (no effect) to 100 (complete control), visual, 12 to 14 days

Structure (SMILES): CCNC(=O)c1cccc(NC(=O)c2nn(C(C)(C)CC)nc2CC)c1 [Compound 376]
- Plant response rating, Wheat (wheat; [1]): 25
- Plant response rating, Wheat (wheat; [2]): 20
- Plant response rating, Wheat (wheat; [3]): 20
- Barley, Winter plant response rating (winter barley; Postemergence): 40
- Plant response rating, Barley, Winter (winter barley; [4]): 30
- Plant response rating, Barley, Winter (winter barley; [5]): 20
- Plant response rating, Barley, Winter (winter barley; [6]): 20
- Plant response rating, Oat, Wild (wild oat; [1]): 60
- Plant response rating, Oat, Wild (wild oat; [2]): 45
- Plant response rating, Oat, Wild (wild oat; [3]): 40
- Plant response rating, Ryegrass, Italian (Italian ryegrass; [1]): 65
- Plant response rating, Ryegrass, Italian (Italian ryegrass; [2]): 55
- Plant response rating, Ryegrass, Italian (Italian ryegrass; [3]): 45
- Plant response rating, Windgrass (windgrass; [1]): 65
- Plant response rating, Windgrass (windgrass; [2]): 40
- Plant response rating, Windgrass (windgrass; [3]): 40
- Plant response rating, Canarygrass (canarygrass; [4]): 55
- Plant response rating, Canarygrass (canarygrass; [1]): 65
- Plant response rating, Canarygrass (canarygrass; [2]): 50
- Plant response rating, Canarygrass (canarygrass; [3]): 45
- Plant response rating, Bromegrass, Downy (downy bromegrass; [4]): 40
- Plant response rating, Bromegrass, Downy (downy bromegrass; [1]): 50
- Plant response rating, Bromegrass, Downy (downy bromegrass; [2]): 35
- Plant response rating, Bromegrass, Downy (downy bromegrass; [3]): 35
- Plant response rating, Foxtail, Green (green foxtail; [4]): 60
- Plant response rating, Foxtail, Green (green foxtail; [1]): 65
- Plant response rating, Foxtail, Green (green foxtail; [2]): 60
- Plant response rating, Foxtail, Green (green foxtail; [3]): 40
- Plant response rating, Pigweed (pigweed; 62 g ai/ha, scale 0 to 100): 100
- Plant response rating (0 = no effect, 100 = complete control), Pigweed (pigweed; 125 g ai/ha): 100
- Plant response rating, Pigweed (pigweed; 250 g ai/ha, scale 0-100): 100
- Plant response rating, Pigweed (pigweed; [7]): 100
- Plant response rating, Nightshade (eastern black nightshade; 62 g ai/ha, scale 0 to 100): 95
- Plant response rating (0 = no effect, 100 = complete control), Nightshade (eastern black nightshade; 125 g ai/ha): 100
- Plant response rating, Nightshade (eastern black nightshade; 250 g ai/ha, scale 0-100): 100
- Plant response rating, Nightshade (eastern black nightshade; [7]): 100
- Blackgrass plant response rating (blackgrass; Postemergence, scale 0 to 100): 65
- Plant response rating, Blackgrass (blackgrass; [4]): 50
- Plant response rating, Blackgrass (blackgrass; [2]): 40
- Plant response rating, Blackgrass (blackgrass; [3]): 40
- Plant response rating, Nutsedge, Yellow (yellow nutsedge; 62 g ai/ha, scale 0 to 100): 5
- Plant response rating (0 = no effect, 100 = complete control), Nutsedge, Yellow (yellow nutsedge; 125 g ai/ha): 30
- Plant response rating, Nutsedge, Yellow (yellow nutsedge; 250 g ai/ha, scale 0-100): 40
- Plant response rating, Nutsedge, Yellow (yellow nutsedge; [7]): 60

Structure (SMILES): CCn1nc(C2(C)CC2)cc1C(=O)Nc1cccc(C(=O)N2CC=CC2)c1 [Compound 304]
- Wheat plant response rating (wheat; [8]): 40
- Plant response rating, Wheat (wheat; [4]): 40
- Plant response rating, Wheat (wheat; [2]): 40
- Plant response rating, Wheat (wheat; [3]): 35
- Barley, Winter plant response rating (winter barley; Postemergence): 45
- Plant response rating, Barley, Winter (winter barley; [4]): 35
- Plant response rating, Barley, Winter (winter barley; [5]): 35
- Plant response rating, Barley, Winter (winter barley; [6]): 35
- Oat, Wild plant response rating (wild oat; [8]): 70
- Plant response rating, Oat, Wild (wild oat; [4]): 60
- Plant response rating, Oat, Wild (wild oat; [2]): 60
- Plant response rating, Oat, Wild (wild oat; [3]): 60
- Ryegrass, Italian plant response rating (Italian ryegrass; [8]): 50
- Plant response rating, Ryegrass, Italian (Italian ryegrass; [4]): 50
- Plant response rating, Ryegrass, Italian (Italian ryegrass; [2]): 50
- Plant response rating, Ryegrass, Italian (Italian ryegrass; [3]): 50
- Windgrass plant response rating (windgrass; [8]): 45
- Plant response rating, Windgrass (windgrass; [4]): 40
- Plant response rating, Windgrass (windgrass; [2]): 35
- Plant response rating, Windgrass (windgrass; [3]): 35
- Canarygrass plant response rating (canarygrass; [8]): 45
- Plant response rating, Canarygrass (canarygrass; [4]): 45
- Plant response rating, Canarygrass (canarygrass; [2]): 40
- Plant response rating, Canarygrass (canarygrass; [3]): 40
- Bromegrass, Downy plant response rating (downy bromegrass; [8]): 50
- Plant response rating, Bromegrass, Downy (downy bromegrass; [4]): 40
- Plant response rating, Bromegrass, Downy (downy bromegrass; [2]): 40
- Plant response rating, Bromegrass, Downy (downy bromegrass; [3]): 40
- Foxtail, Green plant response rating (green foxtail; [8]): 60
- Plant response rating, Foxtail, Green (green foxtail; [4]): 50
- Plant response rating, Foxtail, Green (green foxtail; [2]): 45
- Plant response rating, Foxtail, Green (green foxtail; [3]): 40
- Plant response rating, Pigweed (pigweed; 62 g ai/ha, scale 0 to 100): 100
- Plant response rating, Pigweed (pigweed; [9]): 100
- Plant response rating, Pigweed (pigweed; 250 g ai/ha, scale 0-100): 100
- Plant response rating, Pigweed (pigweed; [7]): 100
- Plant response rating, Nightshade (eastern black nightshade; 62 g ai/ha, scale 0 to 100): 80
- Plant response rating, Nightshade (eastern black nightshade; [9]): 100
- Plant response rating, Nightshade (eastern black nightshade; 250 g ai/ha, scale 0-100): 100
- Plant response rating, Nightshade (eastern black nightshade; [7]): 100
- Blackgrass plant response rating (blackgrass; Postemergence, scale 0 to 100): 95
- Plant response rating, Blackgrass (blackgrass; [4]): 70
- Plant response rating, Blackgrass (blackgrass; [2]): 50
- Plant response rating, Blackgrass (blackgrass; [3]): 60
- Plant response rating, Nutsedge, Yellow (yellow nutsedge; 62 g ai/ha, scale 0 to 100): 0
- Plant response rating, Nutsedge, Yellow (yellow nutsedge; [9]): 0
- Plant response rating, Nutsedge, Yellow (yellow nutsedge; 250 g ai/ha, scale 0-100): 0
- Plant response rating, Nutsedge, Yellow (yellow nutsedge; [7]): 5

Structure (SMILES): Cc1nn(C(C)(C)C)nc1C(=O)Nc1cccc(C(=O)N(C)C)c1 [Compound 391]
- Plant response rating, Wheat (wheat; [1]): 35
- Plant response rating, Wheat (wheat; [2]): 20
- Plant response rating, Wheat (wheat; [3]): 0
- Barley, Winter plant response rating (winter barley; Postemergence): 30
- Plant response rating, Barley, Winter (winter barley; [4]): 30
- Plant response rating, Barley, Winter (winter barley; [5]): 10
- Plant response rating, Barley, Winter (winter barley; [6]): 10
- Plant response rating, Oat, Wild (wild oat; [1]): 65
- Plant response rating, Oat, Wild (wild oat; [2]): 40
- Plant response rating, Oat, Wild (wild oat; [3]): 30
- Plant response rating, Ryegrass, Italian (Italian ryegrass; [1]): 65
- Plant response rating, Ryegrass, Italian (Italian ryegrass; [2]): 40
- Plant response rating, Ryegrass, Italian (Italian ryegrass; [3]): 35
- Plant response rating, Windgrass (windgrass; [1]): 70
- Plant response rating, Windgrass (windgrass; [2]): 65
- Plant response rating, Windgrass (windgrass; [3]): 60
- Plant response rating, Canarygrass (canarygrass; [4]): 60
- Plant response rating, Canarygrass (canarygrass; [1]): 65
- Plant response rating, Canarygrass (canarygrass; [2]): 40
- Plant response rating, Canarygrass (canarygrass; [3]): 40
- Plant response rating, Bromegrass, Downy (downy bromegrass; [4]): 55
- Plant response rating, Bromegrass, Downy (downy bromegrass; [1]): 65
- Plant response rating, Bromegrass, Downy (downy bromegrass; [2]): 45
- Plant response rating, Bromegrass, Downy (downy bromegrass; [3]): 45
- Plant response rating, Foxtail, Green (green foxtail; [4]): 60
- Plant response rating, Foxtail, Green (green foxtail; [1]): 65
- Plant response rating, Foxtail, Green (green foxtail; [2]): 55
- Plant response rating, Foxtail, Green (green foxtail; [3]): 55
- Plant response rating, Pigweed (pigweed; 62 g ai/ha, scale 0 to 100): 95
- Plant response rating (0 = no effect, 100 = complete control), Pigweed (pigweed; 125 g ai/ha): 100
- Plant response rating, Pigweed (pigweed; 250 g ai/ha, scale 0-100): 100
- Plant response rating, Pigweed (pigweed; [7]): 100
- Plant response rating, Nightshade (eastern black nightshade; 62 g ai/ha, scale 0 to 100): 90
- Plant response rating (0 = no effect, 100 = complete control), Nightshade (eastern black nightshade; 125 g ai/ha): 95
- Plant response rating, Nightshade (eastern black nightshade; 250 g ai/ha, scale 0-100): 95
- Plant response rating, Nightshade (eastern black nightshade; [7]): 95
- Blackgrass plant response rating (blackgrass; Postemergence, scale 0 to 100): 65
- Plant response rating, Blackgrass (blackgrass; [4]): 55
- Plant response rating, Blackgrass (blackgrass; [2]): 45
- Plant response rating, Blackgrass (blackgrass; [3]): 40
- Plant response rating, Nutsedge, Yellow (yellow nutsedge; 62 g ai/ha, scale 0 to 100): 5
- Plant response rating (0 = no effect, 100 = complete control), Nutsedge, Yellow (yellow nutsedge; 125 g ai/ha): 70
- Plant response rating, Nutsedge, Yellow (yellow nutsedge; 250 g ai/ha, scale 0-100): 90
- Plant response rating, Nutsedge, Yellow (yellow nutsedge; [7]): 90
